The structures appear in SMILES notation.

Drawing on US7473790B2 (Pfizer Inc., priority 2003, dated 2009), this text covers inhibition and IC50 for 27 molecules.

The target of the first experiment is T1, HCV polymerase (Hepatitis C virus genotype 1b, UniProt P26663).
T1 construct: 2.5 pmoles (0.15 μg) HCV polymerase protein in a final volume of 75 μL
T1 sequence (P26663 2420-3010): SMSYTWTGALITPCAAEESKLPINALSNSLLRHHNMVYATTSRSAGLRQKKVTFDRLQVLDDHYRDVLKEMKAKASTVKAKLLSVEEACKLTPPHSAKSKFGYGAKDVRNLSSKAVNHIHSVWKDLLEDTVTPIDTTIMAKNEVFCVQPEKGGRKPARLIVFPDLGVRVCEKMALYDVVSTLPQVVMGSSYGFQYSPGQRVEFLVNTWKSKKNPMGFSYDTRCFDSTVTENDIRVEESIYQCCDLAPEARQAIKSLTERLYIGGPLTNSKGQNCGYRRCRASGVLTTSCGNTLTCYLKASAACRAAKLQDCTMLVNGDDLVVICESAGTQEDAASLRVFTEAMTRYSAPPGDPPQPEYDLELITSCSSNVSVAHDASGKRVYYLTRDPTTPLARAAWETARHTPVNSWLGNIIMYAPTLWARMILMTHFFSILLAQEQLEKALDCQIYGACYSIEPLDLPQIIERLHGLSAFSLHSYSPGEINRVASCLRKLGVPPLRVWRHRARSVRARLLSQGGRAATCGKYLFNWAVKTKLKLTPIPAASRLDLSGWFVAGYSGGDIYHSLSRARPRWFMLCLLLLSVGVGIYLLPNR
Kind of experiment: HCV polymerase primer/template-directed transcription assay (32P-GTP incorporation, filter binding). Type of experiment: biochemical. The conditions noted are these: @ 50 uM compound; given where IC50 was impractical to calculate; read-out: percent inhibition. As to the method: The compounds described herein were tested for activity with HCV polymerase. Recombinant HCV polymerase was tested for its ability to perform primer/template-directed transcription in assays that contained 30 mM tris-HCl pH 7.2, 10 mM MgCl2, 20 mM NaCl, 1 mM Dithiothreitol (DTT), 0.05% Tween-20, 1% glycerol, 5 pmoles biotin-dG12 (primer), 0.5 pmoles poly(rC)300 (template), 1 μM GTP, 0.1-0.3 uCi α-^32P-GTP, and 2.5 pmoles (0.15 μg) HCV polymerase protein in a final volume of 75 μL. Reactions were initiated by addition of enzyme and incubated 30 minutes at 30° C. Reactions were stopped by addition of 33 mM EDTA, and polynucleotide products were collected by filtration through Diethylaminoethyl (DE) Filtermat papers (Wallac). Unincorporated triphosphate was removed by washing the filters with 5% dibasic sodium phosphate. The filters were counted in a Packard Tri-Lux Microbeta scintillation counter (Packard Bioscience, Meriden, Conn.). Compounds to be tested were added at various concentrations, e.g., 1 μm to 50 μm, from stocks in 10% DMSO-water (final DMSO is 1% in reaction).
IC50 values were estimated from the primary cpm data (collected in triplicate) using the formula: cpm (I)=cpm(no inhibitor)(1−([I]/([I]+IC50))). An IC50 value represents the concentration (in μM) of a compound that provides 50% inhibition of polymerase-directed transcription in the above assay. A percent inhibition value is expressed for a compound where it was impractical to calculate an IC50 value with available data. If the IC50 estimated by the above equation was less than 200 nM, it was recalculated using the following equation, which takes into account the enzyme concentration (30 nM) in the assay: cpm(I)=cpm(no inhibitor)(1−((((I+IC50+30e−9)−sqrt(((I+IC50+30e−9)^2)−4×30e−9×I)))/((2)(30e−9))). Curve fitting was performed using the program KaleidaGraph (Synergy Software, Reading, Pa.).
As to `O=C1CC(=O)OC(CCN2CCCC2=O)(C2CCCC2)C1` (stereo not drawn) [A(14), 6-Cyclopentyl-6-[2-(2-oxo-pyrrolidin-1-yl)-ethyl]-dihydro-pyran-2,4-dione], the inhibition at 50 µM was 35%.

Still in this experiment, the particulars now being: recombinant HCV polymerase; 30 minutes at 30° C.; concentration giving 50% inhibition of polymerase-directed transcription; read-out: IC50.
In the case of `CCc1ccc(O)c(CCC2(C3CCCC3)CC(O)=C(Cc3nc4ncc(Cl)cn4n3)C(=O)O2)c1` (single isomer, unassigned; enantiomer 1) [A(171), Enantiomer 1 of 3-(6-Chloro-[1,2,4]triazolo[1,5-a]pyrimidin-2-ylmethyl)-6-cyclopentyl-6-[2-(5-ethyl-2-hydroxy-phenyl)-ethyl]-4-hydroxy-5,6-dihydro-pyran-2-one], the IC50 is 0.004 µM. Consider `CCc1ccc(O)c(CCC2(C3CCCC3)CC(O)=C(Cc3nc4ncc(C)cn4n3)C(=O)O2)c1` (single isomer, unassigned; enantiomer 1) [A(174), Enantiomer 1 of 6-Cyclopentyl-6-[2-(5-ethyl-2-hydroxy-phenyl)-ethyl]-4-hydroxy-3-(6-methyl-[1,2,4]triazolo[1,5-a]pyrimidin-2-ylmethyl)-5,6-dihydro-pyran-2-one], for which the IC50 is 0.006 µM.

For the molecule `CCc1ccc(O)c(CCC2(C3CCCC3)CC(O)=C(Cc3nc4nc(C)cc(C)n4n3)C(=O)O2)c1` (single isomer, unassigned; enantiomer 2) [A(168), Enantiomer 2 of 6-Cyclopentyl-3-(5,7-dimethyl-[1,2,4]triazolo[1,5-a]pyrimidin-2-ylmethyl)-6-[2-(5-ethyl-2-hydroxy-phenyl)-ethyl]-4-hydroxy-5,6-dihydro-pyran-2-one], the IC50 worked out at 0.009 µM. On the same count and under the same terms, the result for `CCc1ccc(O)c(CCC2(C3CCCC3)CC(O)=C(Cc3nc4ncc(Cl)cn4n3)C(=O)O2)c1` (single isomer, unassigned; enantiomer 2) [A(172), Enantiomer 2 of 3-(6-Chloro-[1,2,4]triazolo[1,5-a]pyrimidin-2-ylmethyl)-6-cyclopentyl-6-[2-(5-ethyl-2-hydroxy-phenyl)-ethyl]-4-hydroxy-5,6-dihydro-pyran-2-one] reads 0.006 µM; that for `CCc1ccc(O)c(CCC2(C3CCCC3)CC(O)=C(Cc3nc4ncc(C)cn4n3)C(=O)O2)c1` (single isomer, unassigned; enantiomer 2) [A(175), Enantiomer 2 of 6-Cyclopentyl-6-[2-(5-ethyl-2-hydroxy-phenyl)-ethyl]-4-hydroxy-3-(6-methyl-[1,2,4]triazolo[1,5-a]pyrimidin-2-ylmethyl)-5,6-dihydro-pyran-2-one], 0.009 µM. As to `Cc1cc(C)n2nc(CC3=C(O)CC(CCc4ccc(C(C)(C)O)c(F)c4)(C4CCCC4)OC3=O)nc2n1` (single isomer, unassigned; enantiomer a) [A(218), 6-cyclopentyl-3-[(5,7-dimethyl[1,2,4]triazolo[1,5-a]pyrimidin-2-yl)methyl]-6-{2-[3-fluoro-4-(1-hydroxy-1-methylethyl)phenyl]ethyl}-4-hydroxy-5,6-dihydro-2H-pyran-2-one (enantiomer A)], the IC50 was 0.061 µM.

On to `Cc1cc(C)n2nc(CC3=C(O)CC(CCc4ccc(C(C)(C)O)c(F)c4)(C4CCCC4)OC3=O)nc2n1` (single isomer, unassigned; enantiomer b) [A(219), 6-cyclopentyl-3-[(5,7-dimethyl[1,2,4]triazolo[1,5-a]pyrimidin-2-yl)methyl]-6-{2-[3-fluoro-4-(1-hydroxy-1-methylethyl)phenyl]ethyl}-4-hydroxy-5,6-dihydro-2H-pyran-2-one (enantiomer B)], for which the IC50 was determined as 0.088 µM. Consider `Cc1cc(C)n2nc(CC3=C(O)CC(CCc4ccc([C@@H](C)O)c(F)c4)(C4CCCC4)OC3=O)nc2n1` (stereo in doubt) [B(114), 6-Cyclopentyl-3-(5,7-dimethyl-[1,2,4]triazolo[1,5-a]pyrimidin-2-ylmethyl)-6-{2-[3-fluoro-4-(1-hydroxy-ethyl)-phenyl]-ethyl}-4-hydroxy-5,6-dihydro-pyran-2-one], for which the IC50 was found to be 0.016 µM. `C[C@@H](O)c1ccc(CCC2(C3CCCC3)CC(O)=C(Cc3nc4ncc(Cl)cn4n3)C(=O)O2)cc1F` (stereo in doubt) [B(116), 3-(6-Chloro-[1,2,4]triazolo[1,5-a]pyrimidin-2-ylmethyl)-6-cyclopentyl-6-{2-[3-fluoro-4-(1-hydroxy-ethyl)-phenyl]-ethyl}-4-hydroxy-5,6-dihydro-pyran-2-one]: the IC50 was 0.011 µM. In the case of `COc1ccc(CCC2(C3CCCC3)CC(O)=C(Cc3nc4nc(C)cc(C)n4n3)C(=O)O2)cc1[C@@H](C)O` (stereo in doubt) [B(120), 6-Cyclopentyl-3-(5,7-dimethyl-[1,2,4]triazolo[1,5-a]pyrimidin-2-ylmethyl)-4-hydroxy-6-{2-[3-(1-hydroxy-ethyl)-4-methoxy-phenyl]-ethyl}-5,6-dihydro-pyran-2-one], the IC50 was found to be 0.012 µM. Take `CCn1cc(CCC2(C3CCCC3)CC(=O)CC(=O)O2)ccc1=O` (stereo not drawn) [A(01), 6-Cyclopentyl-6-[2-(1-ethyl-6-oxo-1,6-dihydro-pyridin-3-yl)-ethyl]-dihydro-pyran-2,4-dione]: the IC50 worked out at 38.3 µM.

Consider `CC(C)(C)c1cc(CCC2(C3CCCC3)CC(=O)CC(=O)O2)ccc1O` (stereo not drawn) [A(02), 6-[2-(3-tert-Butyl-4-hydroxy-phenyl)-ethyl]-6-cyclopentyl-dihydro-pyran-2,4-dione], for which the IC50 was 2.4 µM. Turning to `CCOc1ccc(CCC2(C3CCCC3)CC(=O)CC(=O)O2)cc1C` (stereo not drawn) [A(03), 6-Cyclopentyl-6-[2-(4-ethoxy-3-methyl-phenyl)-ethyl]-dihydro-pyran-2,4-dione], the IC50 was found to be 4.3 µM.

Take `Cc1cc(CCC2(C3CCCC3)CC(=O)CC(=O)O2)ccc1OC(C)C` (stereo not drawn) [A(04), 6-Cyclopentyl-6-[2-(4-isopropoxy-3-methyl-phenyl)-ethyl]-dihydro-pyran-2,4-dione]: the IC50 came out at 5.6 µM. Consider `O=C1CC(=O)OC(CCc2ccc(OCC(F)(F)F)c(Cl)c2)(C2CCCC2)C1` (stereo not drawn) [A(05), 6-{2-[3-Chloro-4-(2,2,2-trifluoro-ethoxy)-phenyl]-ethyl}-6-cyclopentyl-dihydro-pyran-2,4-dione], for which the IC50 was 5.1 µM. On the same count and under the same terms, the result for `COc1ccc(SCC2(C3CCCC3)CC(=O)CC(=O)O2)cc1` (stereo not drawn) [A(06), 6-Cyclopentyl-6-(4-methoxy-phenylsulfanylmethyl)-dihydro-pyran-2,4-dione] reads 23.5 µM; that for `CC(=O)Nc1ccc(CCC2(C3CCCC3)CC(=O)CC(=O)O2)cc1F` (stereo not drawn) [A(07), N-{4-[2-(2-Cyclopentyl-4,6-dioxo-tetrahydro-pyran-2-yl)-ethyl]-2-fluoro-phenyl}-acetamide], 13.4 µM; that for `COCc1ccc(CCC2(C3CCCC3)CC(=O)CC(=O)O2)cc1F` (stereo not drawn) [A(08), 6-Cyclopentyl-6-[2-(3-fluoro-4-methoxymethyl-phenyl)-ethyl]-dihydro-pyran-2,4-dione], 6 µM. Take `O=C1CC(=O)OC(CCc2ccc(-c3ccccc3)c(F)c2)(C2CCCC2)C1` (stereo not drawn) [A(09), 6-Cyclopentyl-6-[2-(2-fluoro-biphenyl-4-yl)-ethyl]-dihydro-pyran-2,4-dione]: the IC50 amounted to 5.5 µM. For the molecule `O=C1CC(=O)OC(CCc2ccc(-c3cc4ccccc4s3)c(F)c2)(C2CCCC2)C1` (stereo not drawn) [A(10), 6-[2-(4-Benzo[b]thiophen-2-yl-3-fluoro-phenyl)-ethyl]-6-cyclopentyl-dihydro-pyran-2,4-dione], the IC50 was found to be 8.1 µM. Consider `CNC(=O)c1ccc(CCC2(C3CCCC3)CC(=O)CC(=O)O2)cc1F` (stereo not drawn) [A(11), 4-[2-(2-Cyclopentyl-4,6-dioxo-tetrahydro-pyran-2-yl)-ethyl]-2-fluoro-N-methyl-benzamide], for which the IC50 was found to be 16.7 µM.

Consider `Cc1ccc(-c2ccc(CCC3(C4CCCC4)CC(=O)CC(=O)O3)cc2F)s1` (stereo not drawn) [A(12), 6-Cyclopentyl-6-{2-[3-fluoro-4-(5-methyl-thiophen-2-yl)-phenyl]-ethyl}-dihydro-pyran-2,4-dione], for which the IC50 stood at 18.3 µM.

For `O=C1CC(=O)OC(CCC2=CCCCC2)(C2CCCC2)C1` (stereo not drawn) [A(13), 6-(2-Cyclohex-1-enyl-ethyl)-6-cyclopentyl-dihydro-pyran-2,4-dione], the half-maximal inhibitory concentration (IC50) worked out at 63 µM. Regarding `Cc1nc(-c2ccc(CCC3(C4CCCC4)CC(=O)CC(=O)O3)cc2F)no1` (stereo not drawn) [A(15), 6-Cyclopentyl-6-{2-[3-fluoro-4-(5-methyl-[1,2,4]oxadiazol-3-yl)-phenyl]-ethyl}-dihydro-pyran-2,4-dione], the IC50 came to 4.4 µM.

For `CN(C)C(=O)c1ccc(CCC2(C3CCCC3)CC(=O)CC(=O)O2)cc1F` (stereo not drawn) [A(16), 4-[2-(2-Cyclopentyl-4,6-dioxo-tetrahydro-pyran-2-yl)-ethyl]-2-fluoro-N,N-dimethyl-benzamide], the IC50 worked out at 14.4 µM. On to `CCNC(=O)c1ccc(CCC2(C3CCCC3)CC(=O)CC(=O)O2)cc1F` (stereo not drawn) [A(17), 4-[2-(2-Cyclopentyl-4,6-dioxo-tetrahydro-pyran-2-yl)-ethyl]-N-ethyl-2-fluoro-benzamide], for which the IC50 amounted to 23 µM.

Usually inhibition stands for the relative decrease from the control value, in per cent. For orientation: IC50 means the concentration at which inhibition is half-maximal.
